Test results as given in patent publication US20240368559A1, “METHOD OF PRODUCING BRAIN MICROVASCULAR ENDOTHELIAL-LIKE CELLS AND USE THEREOF” (PUBLIC UNIVERSITY CORPORATION NAGOYA CITY UNIVERSITY, priority 2021, published 2024).

Legend:
Assay type in all cases: cell-based
[1] = system: iBMELCs (human iPS cell-derived brain microvascular endothelial-like cells); experiment: Transendothelial electrical resistance (TEER) of iBMELCs induced to differentiate from iEPCs under varied medium and coating conditions; settings: FIG. 6
Excerpt: iEPCs were induced to differentiate into iBMELCs under conditions where the coating agent and the additive added to the culture medium each varied. For coating the culture dish, as described above, two components of FBN and COL4, or three components obtained by adding any one component of VTN-N, LN221, LN411F, and LN511F to these two components, or four components obtained by adding LN411F and LN511F to these two components were used. As the third component, Laminin211, Laminin411, Laminin511, Agrin, Laminin-mix, Laminin-fragment mix, or hep ex was also used. […]
In order to examine the effect of cryopreserving iEPCs induced to differentiate from hiPSCs, the difference in transendothelial electrical resistance (TEER value) was compared between the presence and absence of freezing. A frozen group, in which iEPCs on day 14 of differentiation were frozen and thawed by the above-described method, and a unfrozen group of unfrozen iEPCs on day 14 of differentiation were induced to differentiate into iBMELCs by the above-described method while using the above-described differentiation-inducing condition A, and the TEER value was then measured. […] As used herein, the “maximum TEER value” means the maximum value among the TEER values measured on each day from day 2 after seeding to day 10 after seeding. […]

[2] = system: iBPCs (human iPS cell-derived brain pericytes); experiment: Brain pericyte marker gene expression in iBPCs by RT-q PCR; settings: FIG. 20; 1 μM A 83-01 from day 8, iBPCs on day 12 of differentiation
Method: (§1) The above-described hiPSCs were used and induced to differentiate into iBPCs. Human iPS cells cultured in mTeSR plus medium were detached by using TrypLE Select, seeded on a VTN-N-coated culture dish at a density of 2×10^4 cells/cm^2, and then cultured in mTeSR plus medium containing 10 μM of Y-27632 (manufactured by Focus Biomolecules) for 24 hours. Thereafter, the cells were cultured for 1 day in modified DMEM/F12 medium (DMEM/F12 containing 0.1% chemically defined lipid concentrate, 0.1×insulin-transferrin-selenium (from Thermo Fisher Scientific), 2 mM GlutaMAX (from Sigma-Aldrich), […] 1-thioglycerol (from Sigma-Aldrich), 50 μg/mL of L-ascorbic acid phosphate magnesium salt n-hydrate, and 1×penicillin-streptomycin solution) supplemented with 5 μM CHIR-99021 (manufactured by Focus Biomolecules). Next, the cells were cultured for 1 day in modified DMEM/F12 medium containing 50 ng/mL of FGF2. […]
The expression level of each brain pericyte marker gene was analyzed by RT-q PCR. […] Relative expression levels of mRNA in X (+) and X (−) were determined while the expression level of mRNA in hPCs was set to 1 as a reference. […]

[3] = system: iBPCs (human iPS cell-derived brain pericytes); experiment: Brain pericyte marker protein expression in iBPCs by immunostaining; settings: FIGS. 21 and 22; 1 μM A 83-01 in differentiation medium
Method: as §1, with “FGF2. Then, the cells were cultured for 2 days in EGM-2 medium (EGM-2 basal medium containing 2% FBS, 0.2 μg/mL hydrocortisone, 10 ng/mL FGF2, 20 ng/mL R3-IGF-1, 1 μg/mL ascorbic acid, 5 ng/mL hEGF, gentamicin, and amphotericin B) supplemented with 50 ng/mL PDGF-BB and 0.5 ng/mL VEGF. During this time, the medium was changed every day. On day 4, cells treated with 10 μM Y-27632 for 1 hour were dissociated using TrypLE Select, subcultured on a new VTN-N-coated culture dish at 1.25×10^4 cells/cm^2, and then induced to differentiate in an EGM-2 medium containing 50 ng/mL PDGF-BB. During this time, the medium was changed every day. On day 8 of differentiation, the cells were induced to differentiate in an EGM-2 medium containing 50 ng/mL PDGF-BB, and 1 μM A 83-01. During this time, the medium was changed every day.” for “FGF2.”
iBPCs (X(+) and X(−)) induced to differentiate from hiPSCs by the above method were analyzed by immunostaining in order to check the properties as BPCs. […] After that, the cells were washed three times with D-PBS (−), and then analyzed with an Operetta High-Content Imaging System (manufactured by PerkinElmer). […]

[4] = system: iBPCs (human iPS cell-derived brain pericytes); experiment: Cell scratch test of cell migration ability and proliferation potential of iBPCs; settings: FIGS. 23 and 24
Method: as §1
Samples used were iBPCs (X (+)) induced to differentiate by adding A 83-01 in the above method and iBPCs (X (−)) induced to differentiate without adding A 83-01 in the above method. […] How the cells migrated 0, 12, and 24 hours of culture after cell scratching was checked by bright field observation, and the scratched area was calculated by Image J.

## Cc1cccc(-c2nn(C(=S)Nc3ccccc3)cc2-c2ccnc3ccccc23)n1 [A 83-01]
[1]; 1 μM vs 10 μM
  maximum TEER value (barrier function of iBMELCs) at content of 1 μM: high barrier function equivalent to the case of the content of 10 μM
[1]; 0.1, 1 or 10 μM in HE-SFM with 20 ng/mL FGF2 and 7.5% B27s, FBN+COL4 coating
  maximum TEER value (barrier function of iBMELCs), added vs not added: the barrier function of iBMELCs was higher than that when A 83-01 was not added
[2]
  relative mRNA expression level of α-SMA (human primary pericytes = 1): suppress the gene expression of α-SMA to the same extent as that of human primary pericytes
[3]
  expression of NG2 (relative average fluorescence intensity, X (−) = 1): did not significantly affect
  expression of PDGFR-β (relative average fluorescence intensity, X (−) = 1): did not significantly affect
  protein expression of α-SMA (relative average fluorescence intensity, X (−) = 1): suppress the protein expression of α-SMA
[4]; X (+) vs X (−)
  cell migration ability and proliferation potential of iBPCs: enhance the cell migration ability and proliferation potential of iBPCs
[4]; iBPCs (X (+)), 24 hours after cell scratching, number of samples 1
  relative distance of the cell scratch portion (0 hour = 1): 0
